In PMC5908295 (Oncotarget, 2018):
pIC50, pKd: −log10 of the molar value. Like-named read-outs stand apart in the source and are kept apart here.

Assays:
FLT3wt = FLT3wt (Homo sapiens, UniProt P36888); test: KINOMEscan Kd (DiscoverX); format: binding
[1] = test system: Phospho-S6 in MOLM-16 tumors; test: PK/PD: phospho-S6 in MOLM-16 tumors after dosing; format: in vivo, SCID/beige mice; conditions: 25 mg/kg BID for 3 days
Method: At the end of the experiment, mice were sacrificed 4, 8 and 24h after the last dose (three mice per time point). Plasma and tumor samples were collected and stored at −80°C for further analysis.

OCI-AML-2 = test: MTS viability assay, 72 h; conditions: Homo sapiens, OCI-AML2, 72 h
Method: (§13) On the same day, 50 μL of medium containing tested inhibitor was added to the wells. Each compound was tested at 8 concentrations, in triplicates. As a negative control, the medium containing 0.1% DMSO was used. […] Staurosporine was used at 10 μM as a positive control. One the day of drug addition, basal signal from untreated cells was measured from in triplicate to determine time zero (T0). […] GI50 and LC50 values were extrapolated from a variable (four-parameter) dose-response curve fitted in GraphPad Prism.

[2] = test system: MV-4-11 tumors (FLT3-ITD+); test: MV-4-11 subcutaneous xenograft, single agent; format: in vivo, SCID/beige mice; conditions: PO
Description: All animals were handled in strict accordance with good animal practice as defined by the relevant national and local animal welfare bodies. SCID and SCID/beige C.B-17 mice were provided by Harlan Laboratories or Charles River Laboratories, and were maintained in pathogen free conditions. For the xenograft experiments, age-matched (9-11 weeks old) females were used. 5×10^6 of MV-4-11 or MOLM-16 cells were suspended in a mixture (1:1, v:v) of PBS with Matrigel (BD Biosciences,) and injected subcutaneously (sc), in a total volume of 100 μL, above the groin on the right hind limb. For MOLM-13 and KG-1 cells, a mixture (3:1, v:v) of PBS and Matrigel HC (BD Bioscience,) was used to inject 5 × 10^6 of cell per mouse subcutaneously (sc), in a total volume of 100 μL. When tumors reached 100-130 mm^3, mice were randomized into uniform groups (6-9 mice per group) and subsequently administered the compound. […] At the end of the experiment, mice were anesthetized with isofluran and blood samples for total cell counts and biochemistry were obtained by retro-orbital bleeding. […] 5×10^6 cells suspended in a mixture (3:1, v:v) of PBS and Matrigel were injected as described above. When the tumor volume reached ~120 mm^3, mice were randomized into uniform groups (5 mice per group) and the compound then administered. […] Tumor volume was monitored every second day and calculated using the formula: TV = (a^2×b)/2, where “a” is the short axis in millimeters, and “b” is the long axis in millimeters. Body weight was assessed every day.

MV-4-11 [3] = test: Drug interactions (combination index), MTS; format: cell-based; conditions: MV-4-11, broad range of concentrations
Method: and AC220 in AML cell lines was assessed using an MTS assay. Cells viability was measured after 72 h incubation with three-fold serial dilutions of compounds, starting at 10 µM concentration. Obtained data were presented as percentage of viable cells compared with control (untreated) cells viability. Error bars indicate SD.
11 cells. Combination index (CI) are shown on the Y axis and compound concentrations are shown on X and Z axes. Values […] and below 0.7- a synergy between tested compounds. Values above 1 indicate an antagonistic effect.
(1 picture or pasted object on this page, not shown here)

[4] = Pharmacokinetics after oral and intravenous administration; format: in vivo, rats (Sprague Dawley); conditions: male, plasma, Rat, Dose PO/IV 25/1 mg/kg
Method: (§1) therapeutic potential in acute myeloid leukemia
(§2) sheet for further calculations.
(§3) Three male Beagle dogs were administered

OCI-AML-3 = test: MTS viability assay, 72 h; conditions: Homo sapiens, OCI-AML-3, 72 h
Method: 15-25 ×10^3 of MV-4-11, MOLM-13, MOLM-14, MOLM-16, KG-1, Eol-1, SKM-1, PL-21, GDM-1, SKNO-1, RS4;11, Kasumi-3 and Kasumi-6 cells were seeded in 150 μL of culture medium onto individual wells in a 96 well plates, in triplicates. On the same day, 50 μL of medium containing tested inhibitor was added to the wells. Each compound was tested at 8 concentrations, in triplicates. As a negative control, the medium containing 0.1% DMSO was used. […] Staurosporine was used at 10 μM as a positive control. One the day of drug addition, basal signal from untreated cells was measured from in triplicate to determine time zero (T0). […] GI50 and LC50 values were extrapolated from a variable (four-parameter) dose-response curve fitted in GraphPad Prism.

MOLM-13 xenografts = test: MOLM-13 subcutaneous xenograft; format: in vivo; conditions: MOLM-13, SCID mice; AC220 10 mg/kg QD, other doses not given
Description: (§4) All animals were handled in strict accordance with good animal practice as defined by the relevant national and local animal welfare bodies. SCID and SCID/beige C.B-17 mice were provided by Harlan Laboratories or Charles River Laboratories, and were maintained in pathogen free conditions. For the xenograft experiments, age-matched (9-11 weeks old) females were used. 5×10^6 of MV-4-11 or MOLM-16 cells were suspended in a mixture (1:1, v:v) of PBS with Matrigel (BD Biosciences,) and injected subcutaneously (sc), in a total volume of 100 μL, above the groin on the right hind limb. For MOLM-13 and KG-1 cells, a mixture (3:1, v:v) of PBS and Matrigel HC (BD Bioscience,) was used to inject 5 × 10^6 of cell per mouse subcutaneously (sc), in a total volume of 100 μL. When tumors reached 100-130 mm^3, mice were randomized into uniform groups (6-9 mice per group) and subsequently administered the compound. […] At the end of the experiment, mice were anesthetized with isofluran and blood samples for total cell counts and biochemistry were obtained by retro-orbital bleeding. […] 5×10^6 cells suspended in a mixture (3:1, v:v) of PBS and Matrigel were injected as described above. […] Tumor volume was monitored every second day and calculated using the formula: TV = (a^2×b)/2, where “a” is the short axis in millimeters, and “b” is the long axis in millimeters. Body weight was assessed every day.

CYP1A2 = CYP1A2 (Homo sapiens, UniProt P05177); test: CYP isoforms inhibition; format: in vitro ADME; conditions: 5-dose, 3-fold dilution starting at 30 µM; in-house
Chain of CYP1A2 (P05177 whole entry, canonical isoform): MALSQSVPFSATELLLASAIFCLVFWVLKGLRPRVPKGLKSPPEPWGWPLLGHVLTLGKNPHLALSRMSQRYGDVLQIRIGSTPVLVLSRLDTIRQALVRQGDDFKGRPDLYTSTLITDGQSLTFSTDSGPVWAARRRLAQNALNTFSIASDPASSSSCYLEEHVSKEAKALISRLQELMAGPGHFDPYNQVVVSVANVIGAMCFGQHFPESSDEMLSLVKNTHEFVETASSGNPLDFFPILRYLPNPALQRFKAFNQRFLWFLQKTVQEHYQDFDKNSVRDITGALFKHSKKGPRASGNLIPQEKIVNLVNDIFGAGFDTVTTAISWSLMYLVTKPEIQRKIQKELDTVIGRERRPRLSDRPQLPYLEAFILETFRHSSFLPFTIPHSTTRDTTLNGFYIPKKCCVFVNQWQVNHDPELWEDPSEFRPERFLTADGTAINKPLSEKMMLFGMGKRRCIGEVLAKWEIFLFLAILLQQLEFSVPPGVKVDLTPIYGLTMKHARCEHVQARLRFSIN
Method: (§5) or absence of enzyme cofactors. The assay was performed microsomes. (Supplementary Table 7).
(§6) with the respective reference samples (i.e. without measured at Cambridge Bioscience Limited (except
(§7) cofactors). After incubation, drug transformation by liver CYP1A2 inhibition which was measured in-house). The
(§8) enzymes was terminated by adding cold acetonitrile.
(§9) loss of compound was determined by LC-MS analysis. serial dilution starting at 30 μM. The control compound
(§10) The analysis of two standard compounds (i.e. positive a very weak potential for CYP inhibition with IC50
(§11) and negative controls) was included. […]

CYP2C8 = target: T1, CYP2C8 (Homo sapiens, UniProt P10632); test: CYP isoforms inhibition; format: in vitro ADME; conditions: 5-dose, 3-fold dilution starting at 30 µM
T1 construct: Cambridge Bioscience Limited (ran the assay)
T1 sequence (P10632 whole entry, canonical isoform): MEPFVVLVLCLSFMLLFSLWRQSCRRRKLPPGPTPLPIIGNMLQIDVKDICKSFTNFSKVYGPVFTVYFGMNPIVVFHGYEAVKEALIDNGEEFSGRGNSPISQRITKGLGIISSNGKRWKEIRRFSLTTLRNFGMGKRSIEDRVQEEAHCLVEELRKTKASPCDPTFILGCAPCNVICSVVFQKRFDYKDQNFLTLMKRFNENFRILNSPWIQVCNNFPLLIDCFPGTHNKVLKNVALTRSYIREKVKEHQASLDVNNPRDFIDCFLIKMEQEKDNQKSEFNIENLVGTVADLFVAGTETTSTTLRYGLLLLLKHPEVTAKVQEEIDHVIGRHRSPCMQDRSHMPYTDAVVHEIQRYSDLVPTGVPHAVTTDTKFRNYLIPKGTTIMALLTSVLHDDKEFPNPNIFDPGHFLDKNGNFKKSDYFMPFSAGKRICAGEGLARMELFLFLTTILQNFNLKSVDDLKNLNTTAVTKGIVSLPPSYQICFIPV
Method: as §5, §6, §7, §8, §9, §10, §11

CYP2B6 = target: T2, CYP2B6 (Homo sapiens, UniProt P20813); test: CYP isoforms inhibition; format: in vitro ADME; conditions: 5-dose, 3-fold dilution starting at 30 µM
T2 construct: Cambridge Bioscience Limited (ran the assay)
T2 sequence (P20813 whole entry, canonical isoform): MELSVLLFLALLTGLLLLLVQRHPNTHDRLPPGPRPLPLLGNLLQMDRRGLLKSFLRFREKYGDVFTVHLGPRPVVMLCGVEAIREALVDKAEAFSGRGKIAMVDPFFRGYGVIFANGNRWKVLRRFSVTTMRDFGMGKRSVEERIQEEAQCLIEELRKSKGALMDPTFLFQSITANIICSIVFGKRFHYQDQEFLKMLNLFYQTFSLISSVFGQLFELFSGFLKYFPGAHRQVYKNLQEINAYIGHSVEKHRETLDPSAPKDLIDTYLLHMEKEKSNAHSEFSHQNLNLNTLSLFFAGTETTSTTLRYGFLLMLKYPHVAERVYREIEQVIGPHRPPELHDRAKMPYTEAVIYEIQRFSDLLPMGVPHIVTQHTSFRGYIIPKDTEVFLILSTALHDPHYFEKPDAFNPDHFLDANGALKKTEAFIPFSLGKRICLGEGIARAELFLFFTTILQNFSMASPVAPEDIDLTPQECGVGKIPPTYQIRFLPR
Method: as §5, §6, §7, §8, §9, §10, §11

KG-1 (FLT3-WT) tumor = test: KG-1 subcutaneous xenograft; format: in vivo; conditions: KG-1, SCID mice; doses not given
Description: as §4

MV-4-11 [5] = test: MTS viability assay, 72 h; conditions: Homo sapiens, MV4-11, 72 h
Method: as §13

FLT3 (ITD) [6] = target: FLT3 (ITD) (Homo sapiens, UniProt P36888, ITD); test: KINOMEscan Kd (DiscoverX); format: binding
Chain of FLT3 (ITD) (Homo sapiens, UniProt P36888, ITD) (P36888 564-993, stated change not applied): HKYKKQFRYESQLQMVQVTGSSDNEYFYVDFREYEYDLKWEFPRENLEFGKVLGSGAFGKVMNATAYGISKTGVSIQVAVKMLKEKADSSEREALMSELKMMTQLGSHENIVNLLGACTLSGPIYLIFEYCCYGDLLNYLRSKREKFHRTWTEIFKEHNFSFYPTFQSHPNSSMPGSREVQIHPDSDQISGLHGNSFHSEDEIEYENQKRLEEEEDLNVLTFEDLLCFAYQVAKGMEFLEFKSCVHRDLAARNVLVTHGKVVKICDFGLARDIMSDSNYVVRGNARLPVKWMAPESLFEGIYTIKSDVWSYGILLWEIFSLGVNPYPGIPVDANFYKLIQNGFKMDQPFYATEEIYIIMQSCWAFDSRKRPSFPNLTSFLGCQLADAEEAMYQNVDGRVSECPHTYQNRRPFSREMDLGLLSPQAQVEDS
Method: (§12) Dissociation constants (Kd) and inhibition levels of FLT3 mutants were measured at DiscoverX using the KINOMEscan^TM Profiling Service (KdELECT).

FLT3 (ITD) [7] = target: FLT3 (ITD) (Homo sapiens, UniProt P36888); test: KINOMEscan Kd (DiscoverX); format: binding; conditions: comparison of Kd
Chain of FLT3 (ITD) (Homo sapiens, UniProt P36888) (P36888 564-993, change not shown): as the sequence (P36888 564-993, stated change not applied) above
Method: as §12

[8] = Pharmacokinetics after oral and intravenous administration; format: in vivo, mice (CD-1); conditions: female, CD-1, plasma, Mouse, Dose PO/IV 50/15 mg/kg
Method: as §1, §2, §3

PIM2 = PIM2 (Homo sapiens, UniProt Q9P1W9); test: KINOMEscan Kd (DiscoverX); format: binding
Chain of PIM2 (Q9P1W9 whole entry): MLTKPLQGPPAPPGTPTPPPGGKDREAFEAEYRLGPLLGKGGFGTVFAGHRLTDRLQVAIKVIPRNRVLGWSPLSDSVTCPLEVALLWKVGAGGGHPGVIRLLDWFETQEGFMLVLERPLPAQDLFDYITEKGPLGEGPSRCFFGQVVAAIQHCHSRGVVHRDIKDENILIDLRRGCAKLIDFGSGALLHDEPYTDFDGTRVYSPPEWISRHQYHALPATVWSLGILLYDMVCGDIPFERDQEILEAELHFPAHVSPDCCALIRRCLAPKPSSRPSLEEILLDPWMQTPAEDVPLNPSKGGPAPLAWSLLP

Chain of FLT3wt (P36888 27-993): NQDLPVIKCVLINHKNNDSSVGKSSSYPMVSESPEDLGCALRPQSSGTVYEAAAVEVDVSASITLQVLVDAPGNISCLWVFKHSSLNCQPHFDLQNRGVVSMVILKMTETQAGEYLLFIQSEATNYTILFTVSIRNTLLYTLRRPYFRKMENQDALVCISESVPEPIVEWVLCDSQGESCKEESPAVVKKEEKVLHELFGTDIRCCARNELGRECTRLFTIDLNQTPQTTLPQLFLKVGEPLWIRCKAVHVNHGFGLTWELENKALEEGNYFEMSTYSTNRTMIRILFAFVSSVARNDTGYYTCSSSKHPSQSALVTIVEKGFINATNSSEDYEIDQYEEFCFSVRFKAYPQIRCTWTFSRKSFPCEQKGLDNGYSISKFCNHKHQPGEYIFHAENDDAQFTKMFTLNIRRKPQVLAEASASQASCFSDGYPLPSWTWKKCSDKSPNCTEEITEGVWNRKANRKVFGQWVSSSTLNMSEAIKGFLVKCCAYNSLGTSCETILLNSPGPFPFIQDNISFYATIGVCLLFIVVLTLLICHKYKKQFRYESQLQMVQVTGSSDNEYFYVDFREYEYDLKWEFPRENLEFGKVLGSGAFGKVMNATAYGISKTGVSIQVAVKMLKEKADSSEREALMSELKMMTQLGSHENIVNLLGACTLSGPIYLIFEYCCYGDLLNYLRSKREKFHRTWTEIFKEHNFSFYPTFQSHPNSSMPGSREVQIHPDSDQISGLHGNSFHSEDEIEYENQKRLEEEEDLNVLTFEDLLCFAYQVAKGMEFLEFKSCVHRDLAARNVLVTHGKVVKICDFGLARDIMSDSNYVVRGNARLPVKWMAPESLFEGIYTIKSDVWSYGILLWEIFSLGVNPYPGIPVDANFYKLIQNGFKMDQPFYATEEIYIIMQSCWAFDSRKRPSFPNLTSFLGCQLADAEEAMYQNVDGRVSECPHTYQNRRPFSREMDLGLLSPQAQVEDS

For `CC(C)n1c(C2CCNCC2)nc2c([N+](=O)[O-])c(Br)c(Br)cc21` [SEL24-B489, 5,6-dibromo-4-nitro-2-(piperidin-4-yl)-1-(propan-2-yl)-1H-1,3-benzodiazole], the pKd (FLT3wt) was 6.80, the “time after the last dose that Phospho-S6 remained suppressed” value [1] was “up to 8 hours” and the GI50 (OCI-AML-2) was 0.96 µM. For the same compound, the CC50 (OCI-AML-2; read-out: LC50) was 2.32 µM, the “tumor growth inhibition (TGI)” value ([2]; MV-4-11, 50 mg/kg daily) was 67% and the “tumor growth inhibition (TGI)” value ([2]; MV-4-11, 75 mg/kg daily) was 74%. For the same compound, the “tumor growth inhibition (TGI)” value ([2]; MV-4-11, 100 mg/kg daily) was 82%, the “pharmacological interaction with AraC” value (MV-4-11 [3]) was “marked synergy” and the “pharmacological interaction with vosaroxin” value (MV-4-11 [3]) was “marked synergy”. It also gave a Cmax ([4]; Sprague Dawley, 25 mg/kg) of 913 ng/mL, a Tmax ([4]; Sprague Dawley, 25 mg/kg) of 6.7 h and an AUC(0-t) ([4]; Sprague Dawley) of 19600 ng·h/mL. It also gave a half-life ([4]; Sprague Dawley) of 10 h, a bioavailability ([4]; Sprague-Dawley, 25 mg/kg, read-out: F (bioavailability)) of 52% and a GI50 (OCI-AML-3) of 1.59 µM. The CC50 (OCI-AML-3; read-out: LC50) was 9.21 µM, the TGI (MOLM-13 xenografts) was ~ 50% and the pIC50 (CYP1A2) was under 4.52. For the same compound, the pIC50 (CYP2C8) was under 4.52, the pIC50 (CYP2B6) was under 4.40 and the TGI (KG-1 (FLT3-WT) tumor) was ~ 50%. For the same compound, the GI50 (MV-4-11 [5]) was 0.02 µM, the CC50 (MV-4-11 [5]; read-out: LC50) was over 10 µM and the pKd (FLT3 (ITD) [6]) was 7.80. The “stronger inhibitor binding to FLT3-ITD than to FLT3-WT” value (FLT3 (ITD) [7]) was 10 fold, the Cmax ([8]; 50 mg/kg) was 2180 ng/mL and the Tmax ([8]; 50 mg/kg) was 4 h. It also gave a bioavailability ([8]; 50 mg/kg, read-out: F (bioavailability)) of 62%, an AUC(0-t) [8] of 26200 ng·h/mL and a half-life [8] of 5.2 h. The pKd (PIM2) was 8.70.
